This is an account of results in patent US20040057926A1, “Modulation of the immune response through the manipulation of arginine levels” (LSU Medical Center, priority 2002, published 2004).

For this assay, the system named is ASE I. In words: Western blot for ASE I in PM cytoplasmic extracts. In kind it is cell-based, mice. To be noted: NOHA 100 μM, Nor-NOHA 50 μM. As to the method: Cytoplasmic extracts from PM, Jurkat cells or T lymphocytes were prepared as previously reported. Taheri, F., J. B. Ochoa, Z. Faghiri, K. Culotta, H. J. Park, M. S. Lan, A. H. Zea, and A. C. Ochoa. 2001. L-Arginine regulates the expression of the T-cell receptor zeta chain (CD3zeta) in Jurkat cells. Clin Cancer Res 7:958s-965s. Briefly, cells were resuspended in lysis buffer (50 mM HEPES, 150 mM NaCl, 5 mM EDTA, 1 mM NaOV4 and 0.5% Triton) containing 50 μg/ml of aprotinin, 50 μg/ml of leupeptin, 100 μg/ml of trypsin-chymotrypsin inhibitor and 2 mM PMSF. Lysates were centrifuged at 3000×g for 10 min at 4° C. Cytoplasmic extracts from Jurkat or T-cells were immunoblotted for CD3ζ and CD3ε. The expression ASE I, ASE II and iNOS was detected by immunoblot using PM extracts. GAPDH was used as housekeeping protein. Cytoplasmic extracts were electrophoresed in 12 or 8% Tris-Glycine gels (Novex, San Diego, Calif.), transferred to PVDF membranes and immunoblotted with the appropriate antibodies. The reactions were detected using the ECL kit (Amersham-Pharmacia).
On the technique in general: In western blotting, separated proteins are transferred to a membrane and probed.

Consider `NC(=NCCC[C@H](N)C(=O)O)NO` [NOHA, NG-hydroxy-L-arginine], for which the “ASE I up regulation after IL-4+IL-13 stimulation” value is “did not prevent ASE I up regulation”.
